Laboratory results published in patent US20210228523A1, “MODULATORS OF SESTRIN-GATOR2 INTERACTION AND USES THEREOF” (Navitor Pharmaceuticals, Inc., priority 2017, published 2021).

Key:
[1] = test system: marmosets (Callithrix jacchus); experiment: Marmoset Human Threat Test (HTT); format: in vivo; conditions: Example J, ketamine 0.3 mg/kg i.m.
Source text: Marmoset Human Threat Test (HTT): Marmosets were challenged by the presence of a human observer over a long period of time on a regular basis. Such chronic stimulation is known to increase plasma cortisol and the subsequent increase in hypothalamic-pituitary-adrenal function contributed to the pathophysiology of depressive illness.
Study Design: Thirty-six (36) marmosets (Callithrix jacchus) were paired and divided randomly divided into treatment groups. Twenty-four hours before the Human Threat Test (HTT) animals were treated with vehicle, ketamine (0.3 mg/kg; i.m.) or NV-5138 (160 mg/kg; p.o.). The following day, the same animals were treated with either vehicle (s.c.) or chloriazepoxide (1 mg/kg; s.c.). The animals were then monitored for the number of threat postures over a two (2) minutes period with the presence of a human observer. Locomotor activity was monitored over the same period, as measured by the number of jumps observed.

[2] = test system: Male Sprague Dawley rats; experiment: Novelty Suppressed Feeding Test (NSFT) with home cage feeding control; format: in vivo, rat; conditions: Example I; Ket 10 mg/kg i.p. on alternate days (day 0, 2, 4, 6); day 9
Description: Behavioral Analysis Using the Novelty Suppressed Feeding Test (NSFT): The NSFT was conducted as previously described (Warner-Schmidt, J. L. & Duman, R. S. PNAS 104(11): 4647-52 (2007)). Rats were fasted in their home cages for 20 hr and then placed in a Plexiglas open field (76.5 cm×76.5 cm×40 cm) with a small amount of food in the center. Animals were allowed to explore the open field for 8 min and the latency to feed (s) was recorded.
Chronic Unpredictable Stress (CUS) Conditions: Rats were exposed to a variable sequence of 12 unpredictable stressors, preventing habituation as described (Li, N. et al., Biol Psychiatry 69(8): 754-61 (2011)). The following twelve stressors were applied (2 per day, for 25 days): cage rotation, light on, light off, cold stress, isolation, swim stress, food and water deprivation, wet bedding, stroboscope, cage tilt, odor exposure and group housing. The animals in non-stressed (NS) groups were housed normally without the application of external stressors. Both NS and CUS rats were handled and weighed weekly.
Study Design. Thirty-two (32) male Sprague Dawley Male rats weighing between 175 and 200 g were randomized into 4 study groups (n=8/treatment group), following a 5-day acclimation period. On study day 0, rats received a single dose of either saline (Sal) or ketamine (Ket) in Groups 1 and 2, respectively, by intraperitoneal injection (i.p.). The rats in Group 3 and 4 received a single dose of the NV-5138 vehicle (Veh, 0.5% Methylcellulose/0.1% Tween-80) or NV-5138 (160 mg/kg), respectively, by oral gavage. All rats were subjected to the FUST on day 1, 24 hrs after dosing. On day 2, 48 hrs after dosing, the LMA of all rats was measured in an open field. Rats were then fasted for 20 hrs and subjected to the NSFT, 72 hrs post-dose.
Study Design: Fifty-six (56) male rats weighing between 175 and 200 g were randomized into 4 study groups (n=14/group), following a 5-day acclimation period. On study day minus 20, two groups of rats were subjected to CUS for 25 days and two groups of rats were housed normally serving as the NS group. On the day 21 of the CUS protocol, rats received a single dose of either Veh or NV-5138 (160 mg/kg) by oral gavage (day 0). The SPT and NSFT were performed 24 and 48 hrs post-administration (days 1 and 2), respectively. Upon completion of the behavioral tests, after 25 days of the CUS protocol a second dose of NV-5138 or Veh was administered on day 5 and rats were sacrificed 24 hrs later by conscious decapitation. Crude synaptosomes were prepared from the PFC and the synaptic proteins, GluR1 and PSD95 were quantitated by WB.
Study Design. Twenty (20) male rats weighing between 175 and 200 g were randomized into 3 study groups (n=6-7/group), following a 5-day acclimation period. All rats were surgically implanted with bilateral IT cannulas in the PFC 2 weeks prior to dosing. […] Thirty minutes following the intrathecal infusions, either NV-5138 vehicle (Veh-NV, 0.5% methylcellulose/0.1% Tween-80) or NV-5138 (160 mg/kg) was administered by oral gavage. Each treatment group was assessed at the designated time following oral dosing in FST 24 hrs (day 1) LMA 48 hrs (day 2) and the NSFT 72 hrs (day 3 following a 20 hr period of fasting). LMA was measured to rule out overall changes in generally locomotor activity. The study design is presented in Table 11 with timeline of surgical procedures, test article administration and behavioral tests is provided in FIG. 20
Study Design. Forty-eight (48) male rats weighing between 175 and 200 g were randomized into 6 study groups (n=8/group), following a 5-day acclimation period. A single dose of all test articles was administered on day 0 and the behavioral tests were performed 3, 7 and 10 days later. Groups 1 and 2 were dosed on day 0 with NV-5138 (160 mg/kg by oral gavage) and Ket (10 mg/kg by i.p. injection), respectively and subjected to a FST on day 3. […]

[3] = test system: point mutant form of Sestrin2 unable to bind leucine; experiment: ILBA with Flag-tagged point mutant Sestrin2; format: binding, human
Description: This assay was also performed in cultured human cells over-expressing Sestrin2 N-terminally fused to a Flag tag. In this version of the assay, the procedure remained the same, but immunoblotting was performed with a mouse anti-Flag antibody (#F3165, SIGMA).

[4] = target: T1, Sestrin2 (Homo sapiens, UniProt P58004); experiment: Indirect ligand binding assay (ILBA, Method 7), immunoprecipitation with CST anti-Sestrin2 antibody; set-up: endogenous in cells; host or cells: unnamed human cell line (crude lysate after 1 h amino acid starvation); conditions: crude lysate of amino acid-starved human cell line; 1 hour incubation
T1 sequence (P58004 1-480): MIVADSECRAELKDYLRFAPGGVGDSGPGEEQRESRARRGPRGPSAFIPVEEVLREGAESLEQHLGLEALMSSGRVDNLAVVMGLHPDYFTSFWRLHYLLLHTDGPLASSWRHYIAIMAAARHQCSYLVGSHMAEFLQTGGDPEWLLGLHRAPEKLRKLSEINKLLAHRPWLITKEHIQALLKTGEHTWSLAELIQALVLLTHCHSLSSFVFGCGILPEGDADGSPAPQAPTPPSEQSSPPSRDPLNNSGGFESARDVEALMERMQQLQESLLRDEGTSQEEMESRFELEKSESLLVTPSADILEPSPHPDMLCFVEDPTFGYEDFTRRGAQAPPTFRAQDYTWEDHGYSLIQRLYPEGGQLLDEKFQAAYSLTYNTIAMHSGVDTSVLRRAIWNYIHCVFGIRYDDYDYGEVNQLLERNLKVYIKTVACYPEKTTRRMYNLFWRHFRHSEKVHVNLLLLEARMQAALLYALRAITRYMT
Description: Conversely, compounds that destabilized Sestrin2 as measured by thermal shift assay increased the affinity of the CST antibody for non-denatured Sestrin2. […] In one version, the assay was performed with crude lysate generated from a human cell line after a 1-hour period of amino acid starvation (cells are lysed in 1% Triton, 10 mM beta-glycerol phosphate, 10 mM sodium pyrophosphate, 40 mM HEPES [pH 7.4], 150 mM NaCl and 2.5 mM MgCl2). […] After compound incubation, samples were subjected to immunoprecipitation with the CST anti-Sestrin2 antibody for 1.5 hours followed by a 30-minute incubation with protein-A sepharose as described in L. Chantranupong, et al., Cell Reports 9:1-8 (2014). The sepharose conjugated antibody-protein complex was precipitated via centrifugation and the flow-through was subjected to a second round of immunoprecipitation with a rabbit polyclonal anti-Sestrin2 antibody (Protein Tech, #10795-1-AP) to determine that total Sestrin2 protein levels between samples were equal. SDS-PAGE was performed with the immunoprecipitation samples followed by western-blot with the mouse monoclonal anti-Sestrin2 antibody from SIGMA (cat #WH0083667M3). […] This version of the assay also measured increased instability of Sestrin2 induced by incubation with compounds.

SMILES	animals that developed mild emesis ([1]; half of the animals (6 out of the 12 dosed))	HTT, number of threat postures ([1]; twenty-four hours after acute administration)	NSFT [2]	decrease in affinity of the CST antibody upon ligand binding [3]	decrease in intensity of the Sestrin2 band (immunoprecipitated with CST anti-Sestrin2 antibody) [4]
CNC1(c2ccccc2Cl)CCCCC1=O (centres unmarked) [Ketamine, reference compound]	6 animals	induces an anxiolytic/antidepressant-like profile	significant effects	–	–
CC(C)C[C@H](N)C(=O)O [leucine]	–	–	–	not observed	≥ 50%
